Holding throughout (assay type): cell-based
One experiment concerns human monocytes. In words: In vitro assay 4: rescue of TNFα production from human primary monocytes (LPS + KA). Particulars: one value per donor; for Individual Donors Conc of highest rescue: concentration (of 1, 0.3, 0.1 uM tested) at which highest TNFα rescue was observed; for Individual Donors % rescue TNFα normalised to ref cmpd: human monocytes, 10 ng/mL LPS + 200 uM KA, 18 hours, highest percent rescue relative to highest rescue with GNF-351. As for the experimental part:
In Vitro Assay 4: Rescue of TNFα Production from Human Primary Monocytes
The ability of the substances to enhance immune cell activity was determined. The substances were tested for their capacity to reverse KA-induced inhibition of TNFα production by LPS-stimulated human monocytes. Human monocytes were purified by negative selection from donor PBMCs using Miltenyi beads and seeded at 2×10^5 cells/well in complete growth medium (RPMI 1640, 10% FCS). Monocytes were incubated with 10 ng/mL LPS (O127:B8, #L4516, Sigma) and 200 uM KA (#3375, Sigma) and substances were added at concentrations of 1 uM, 0.3 uM and 0.1 uM and cultured for 18 hours. LPS alone served as the positive control. TNFα production in the supernatant was measured by Meso Scale Discovery immunoassay and the ability of the substances to rescue TNFα production was calculated as a percentage of LPS stimulation and KA-induced inhibition and normalized to the donor-specific response with the reference AHR antagonist compound GNF-351 (Smith et al., J Pharmacol Exp Ther, 2011, 338(1):318-27).

The target of experiment [1] is T1, AHR (Homo sapiens, UniProt P35869).
T1 sequence (P35869 11-848): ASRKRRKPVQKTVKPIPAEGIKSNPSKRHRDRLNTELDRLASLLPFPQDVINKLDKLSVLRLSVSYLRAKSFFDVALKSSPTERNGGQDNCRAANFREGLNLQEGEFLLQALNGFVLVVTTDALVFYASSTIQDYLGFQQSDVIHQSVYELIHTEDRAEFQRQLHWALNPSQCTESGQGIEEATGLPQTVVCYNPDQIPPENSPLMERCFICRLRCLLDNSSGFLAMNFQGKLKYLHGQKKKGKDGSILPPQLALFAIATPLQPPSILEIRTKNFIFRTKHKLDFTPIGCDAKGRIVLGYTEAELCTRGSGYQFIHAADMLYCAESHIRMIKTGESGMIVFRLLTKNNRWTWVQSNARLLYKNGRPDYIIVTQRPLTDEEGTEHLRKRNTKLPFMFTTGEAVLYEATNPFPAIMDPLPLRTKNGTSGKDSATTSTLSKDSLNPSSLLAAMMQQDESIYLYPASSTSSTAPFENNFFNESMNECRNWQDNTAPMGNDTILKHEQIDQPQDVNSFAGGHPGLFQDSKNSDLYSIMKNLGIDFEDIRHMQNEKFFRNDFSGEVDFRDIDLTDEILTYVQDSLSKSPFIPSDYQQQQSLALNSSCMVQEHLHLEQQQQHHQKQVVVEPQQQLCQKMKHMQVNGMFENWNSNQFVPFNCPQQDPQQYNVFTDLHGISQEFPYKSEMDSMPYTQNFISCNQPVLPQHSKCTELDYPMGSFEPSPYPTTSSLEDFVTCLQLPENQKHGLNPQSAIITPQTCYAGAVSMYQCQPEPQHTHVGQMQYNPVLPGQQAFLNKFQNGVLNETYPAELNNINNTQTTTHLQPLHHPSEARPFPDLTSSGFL
In words: In vitro assay 2: agonism in human cell line (transactivation assay, U87 cells, DRE firefly luciferase reporter). Also on record: host or cells: U87 glioblastoma cells, stably transfected with DRE firefly luciferase and renilla reporter constructs. The note with it: no kynurenic acid, 20 hours, read-out: Assay 2: AHR-luc Hum Agonism IC50. An outline of the steps:
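U87 glioblastoma cells with endogenous AHR, stably carrying DRE-driven firefly luciferase and constitutive renilla reporters. 300 uM kynurenic acid served as positive activation control; data normalized to positive and negative controls.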
For orientation: In a reporter assay the amount or activity of a reporter protein is the signal.

In experiment [2] the target is T1, AHR. The experiment is described as follows: In vitro assay 1: antagonism in human cell line (transactivation assay, U87 cells prestimulated with kynurenic acid, DRE firefly luciferase reporter). Also on record: host or cells: U87 glioblastoma cells, stably transfected with DRE firefly luciferase and renilla reporter constructs. The note with it: 150 uM kynurenic acid, 20 hours, read-out: Assay 1: AHR-luc Hum Antagonism IC50. The procedure, abridged:
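U87 glioblastoma cells with endogenous AHR, stably carrying a DRE-driven firefly luciferase reporter and a constitutive renilla reporter. Cells prestimulated with the AHR agonist kynurenic acid before compound addition; data normalized to positive and negative controls.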

In experiment [3] the target is T1, AHR. In words: In vitro assay 3: AHR-regulated CYP1A1 expression in human cell line (U937, qPCR, KA stimulation). Particulars: U937 cells, 200 uM KA, 6 hours, CYP1A1 expression by qPCR; read-out: Assay 3: Hum CYP1A1 Antagonism IC50. The procedure, abridged: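 U937 human monocytic cells were stimulated with 200 uM KA for 6 h, with or without compound at eight concentrations from 1 nM to 3 uM, in duplicate. CYP1A1 mRNA was quantified by Taqman qPCR as fold expression normalised to HPRT. Unstimulated cells served as negative control.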
For orientation: In qPCR the cycle at which signal appears reflects the starting amount.

Values joined by “and” are separate entries in the source; they are usually repeats but may differ in a detail not shown here. Equal values may be shown once.

Usually IC50 stands for the concentration needed to halve the response being measured.

Consider `Cn1cc(-n2nc(-c3ccc(C(F)(F)F)cc3)cc(C(=O)N[C@H](CO)C(F)(F)F)c2=O)cn1` [Example 36, 2-(1-Methyl-1H-pyrazol-4-yl)-3-oxo-N-[(2R)-1,1,1-trifluoro-3-hydroxypropan-2-yl]-6-[4-(trifluoromethyl)phenyl]-2,3-dihydropyridazine-4-carboxamide], for which, in the experiment on human monocytes, the “Individual Donors Conc of highest rescue” value was 1 µM; the “Individual Donors % rescue TNFα normalised to ref cmpd” value was 74% and 65%. Besides, the IC50 at AHR [1] was greater than 20000 nM.
Take `COC[C@H](CO)NC(=O)c1cc(-c2ccc(Cl)cc2)nn(-c2cnn(C)c2)c1=O` [Example 29, 6-(4-Chlorophenyl)-N-[(2S)-1-hydroxy-3-methoxypropan-2-yl]-2-(1-methyl-1H-pyrazol-4-yl)-3-oxo-2,3-dihydropyridazine-4-carboxamide]: in the experiment on human monocytes, the “Individual Donors Conc of highest rescue” value is 1 µM; the “Individual Donors % rescue TNFα normalised to ref cmpd” value was 66% and 88%. Also, on AHR [2], the IC50 turned out to be 76.1 nM. Besides, the IC50 on AHR [1] was greater than 20000 nM.
Consider `Cc1ccc(-c2cc(C(=O)NC(C)CO)c(=O)n(-c3cnn(C)c3)n2)cc1` (centres unmarked) [Example 7, N-(1-Hydroxypropan-2-yl)-6-(4-methylphenyl)-2-(1-methyl-1H-pyrazol-4-yl)-3-oxo-2,3-dihydropyridazine-4-carboxamide], for which, in the experiment on human monocytes, the “Individual Donors Conc of highest rescue” value is 0.1 μM and 1 μM (2×); the “Individual Donors % rescue TNFα normalised to ref cmpd” value was 126% and 63% and 49%. Further, on AHR [2], the IC50 is 20.5 nM. Moreover, the IC50 on AHR [1] was greater than 20000 nM.
Consider `O=C(N[C@H]1COC[C@H]1O)c1cc(-c2ccc(C(F)F)nc2)nn(-c2cccnc2)c1=O` (single isomer, unassigned) [Example 184, 6-[6-(Difluoromethyl)pyridin-3-yl]-N-[(cis)-4-hydroxytetrahydrofuran-3-yl]-3-oxo-2-(pyridin-3-yl)-2,3-dihydropyridazine-4-carboxamide], for which, in the experiment with human monocytes, the “Individual Donors Conc of highest rescue” value was 0.1 µM and 1 µM; the “Individual Donors % rescue TNFα normalised to ref cmpd” value is 63% and 62%. The IC50 at AHR [2] was 3810 nM. The IC50 at AHR [1] was greater than 20000 nM.
Turning to `C[C@H](CO)NC(=O)c1cc(-c2ccc(Cl)cc2)nn(-c2cccnc2)c1=O` [Example 69, 6-(4-Chlorophenyl)-N-[(2R)-1-hydroxypropan-2-yl]-3-oxo-2-(pyridin-3-yl)-2,3-dihydropyridazine-4-carboxamide], the “Individual Donors Conc of highest rescue” value in the experiment with human monocytes came out at 0.1 µM. Moreover, in the experiment on human monocytes, the “Individual Donors % rescue TNFα normalised to ref cmpd” value is 88% and 97%. The IC50 on AHR [2] is 214 nM; at AHR [1] it was greater than 20000 nM.
Turning to `CC(C)(O)C(NC(=O)c1cc(-c2ccc(Cl)cc2)nn(-c2cncnc2)c1=O)C(F)(F)F` (single isomer, unassigned) [Example 186, 6-(4-Chlorophenyl)-3-oxo-2-(pyrimidin-5-yl)-N-(1,1,1-trifluoro-3-hydroxy-3-methylbutan-2-yl)-2,3-dihydropyridazine-4-carboxamide], in the experiment with human monocytes, the “Individual Donors Conc of highest rescue” value was 0.1 µM and 0.3 µM; the “Individual Donors % rescue TNFα normalised to ref cmpd” value is 65% and 108%. In addition, the IC50 on AHR [2] stood at 131 nM. The IC50 on AHR [1] is greater than 20000 nM.
For the compound `O=C(NC(CO)C(F)(F)F)c1cc(-c2ccc(Cl)cc2)nn(-c2cccnc2)c1=O` (racemic) [Example 76, 6-(4-Chlorophenyl)-3-oxo-2-(pyridin-3-yl)-N-[(2RS)-1,1,1-trifluoro-3-hydroxypropan-2-yl]-2,3-dihydropyridazine-4-carboxamide], the values for the IC50 on AHR [3], on AHR [2] and on AHR [1] were 13.8 nM, 11.9 nM and greater than 20000 nM, respectively.
As to `Cc1ccc(-c2cc(C(=O)NCC(O)C(F)F)c(=O)n(-c3cnn(C)c3)n2)cc1` (single isomer, unassigned; enantiomer 1) [Example 14, N-(3,3-Difluoro-2-hydroxypropyl)-6-(4-methylphenyl)-2-(1-methyl-1H-pyrazol-4-yl)-3-oxo-2,3-dihydropyridazine-4-carboxamide, Enantiomer 1], the IC50 was 25.5 nM on AHR [3], 12.1 nM on AHR [2] and greater than 20000 nM on AHR [1].
With `O=C(N[C@H](CO)C(F)(F)F)c1cc(-c2ccc(C(F)(F)F)cc2)nn(-c2cccnc2)c1=O` [Example 112, 3-Oxo-2-(pyridin-3-yl)-N-[(2R)-1,1,1-trifluoro-3-hydroxypropan-2-yl]-6-[4-(trifluoromethyl)phenyl]-2,3-dihydropyridazine-4-carboxamide], the values for the half-inhibitory concentration (IC50) at AHR [3], at AHR [2] and on AHR [1] were 0.905 nM, 1.15 nM and greater than 20000 nM, respectively.
On to `O=C(N[C@H](CO)CF)c1cc(-c2ccc(Cl)cc2)nn(-c2cccnc2)c1=O` [Example 93, (+)-6-(4-Chlorophenyl)-N-[(2R)-1-fluoro-3-hydroxypropan-2-yl]-3-oxo-2-(pyridin-3-yl)-2,3-dihydropyridazine-4-carboxamide], for which the IC50 at AHR [3] was 4.32 nM; on AHR [2], 24.8 nM; on AHR [1], greater than 20000 nM.
Regarding `C[C@H](NC(=O)c1cc(-c2ccc(N(C)C)cc2)nn(-c2cnn(C)c2)c1=O)C(C)(C)O` [Example 310, 6-[4-(Dimethylamino)phenyl]-N-[(2S)-3-hydroxy-3-methylbutan-2-yl]-2-(1-methyl-1H-pyrazol-4-yl)-3-oxo-2,3-dihydropyridazine-4-carboxamide], the figures for the IC50 at AHR [3], at AHR [2] and at AHR [1] were 1.69 nM, 1.7 nM and greater than 20000 nM, respectively.
For `O=C(N[C@H](CO)C1CC1)c1cc(-c2ccc(C(F)(F)F)cc2)nn(-c2cccnc2)c1=O` [Example 94, N-[(1S)-1-Cyclopropyl-2-hydroxyethyl]-3-oxo-2-(pyridin-3-yl)-6-[4-(trifluoromethyl)phenyl]-2,3-dihydropyridazine-4-carboxamide], in that order: 16.5 nM, 8.44 nM and greater than 20000 nM.
For `Cn1cc(-n2nc(-c3ccc(Cl)cc3)cc(C(=O)N[C@@H](C#N)CO)c2=O)cn1` [Example 227, 6-(4-Chlorophenyl)-N-[(1S)-1-cyano-2-hydroxyethyl]-2-(1-methyl-1H-pyrazol-4-yl)-3-oxo-2,3-dihydropyridazine-4-carboxamide], the IC50 on AHR [3] is 11.6 nM; on AHR [2] it was 5.99 nM; on AHR [1] it was greater than 20000 nM.
As for `Cn1cc(-n2nc(-c3ccc(C(F)F)cc3)cc(C(=O)N[C@@H]3COC[C@@H]3O)c2=O)cn1` (single isomer, unassigned) [Example 315, 6-[4-(Difluoromethyl)phenyl]-N-[(cis)-4-hydroxytetrahydro-furan-3-yl]-2-(1-methyl-1H-pyrazol-4-yl)-3-oxo-2,3-dihydropyridazine-4-carboxamide], the IC50 at AHR [3] was 11.9 nM; on AHR [2], 15.9 nM; on AHR [1] it was greater than 20000 nM.

The values above are taken from patent US12522594B2, “2-heteroaryl-3-oxo-2,3-dihydropyridazine-4-carboxamides for the treatment of cancer” (Deutsches Krebsforschungszentrum, priority 2017, dated 2026).
